For one test, the system named is NiV-pVSV. In words: microbe, parasite or virus in culture. The format is cell-based, Nipah virus envelope pseudotyped onto VSV.
For a further test, the system named is enveloped viruses. As to conditions: cited from earlier work.
Test [1] concerns enveloped viruses, such as influenza, HIV-1 and TBEV. As to conditions: cited from earlier work.
[2] abbreviates: Vesicular stomatitis virus, Vero.

“And” between values parts separate entries of the source, which are not always exact repeats. Equal values may be shown once. Read-outs that look alike come from different tables or passages of the source.

As a reminder, the IC50 is the point on the concentration scale where inhibition reaches its midpoint.

`C=CCN1C(=S)S/C(=C\c2ccc(-c3ccccc3)o2)C1=S` [LJ-027]: in the test with NiV-pVSV (read-out: IC50), the IC50 was determined as 0.9 µM.
In turn, `O=C1NC(=S)S/C1=C\c1ccc(-c2ccccc2)o1` [LJ-031, (Z)-5-(5-phenyl-2-furyl)methylene-4-oxothiazolidine-2-thione] showed an IC50 in the test on NiV-pVSV (setting [2]) of 1.04 µM.
`CCN1C(=O)/C(=C/c2ccco2)SC1=S` [LJ-014, (Z)-3-ethyl-5-(furan-2-ylmethylene)-2-thioxothiazolidin-4-one]: in the test on NiV-pVSV, the “IC50 (μM)” value was “Inactive”.
As for `CCN1C(=O)/C(=C/c2ccc(C)o2)SC1=S` [LJ-013, (Z)-3-ethyl-5-((5-methylfuran-2-yl)methylene)-2-thioxothiazolidin-4-one], the “IC50 (μM)” value in the test on NiV-pVSV is “Inactive”.
Regarding `CCN1C(=S)S/C(=C\c2ccc(-c3ccccc3[N+](=O)[O-])o2)C1=S` [LJ-028], the half-inhibitory concentration (IC50) with NiV-pVSV (read-out: IC50) is 2.01 µM.
Consider `CC(C)(C)OC(=O)NCCCN1C(=O)/C(=C/c2ccc(-c3ccccc3)o2)SC1=S` [LJ-036, (Z)-tert-Butyl 3-(4-oxo-5-((5-phenylfuran-2-yl)methylene)-2-thioxothiazolidine-3-yl)propyl carbamate], for which, in the test on NiV-pVSV (read-out: IC50), the concentration for half-maximal inhibition (IC50) turned out to be 0.74 µM.
Turning to `CCN1C(=O)/C(=C/c2ccc(-c3ccccc3[N+](=O)[O-])o2)SC1=S` [LJ-015, (Z)-3-ethyl-5-((5-(2-nitrophenyl)furan-2-yl)methylene)-2-thioxothiazolidin-4-one], the results for the IC50 in the test on NiV-pVSV and with NiV-pVSV (setting [2]) were 1.03 µM and 1.3 µM, respectively.
On to `CN1C(=O)/C(=C/c2ccc(-c3ccccc3)o2)SC1=S` [LJ-005, (Z)-3-Methyl-5-(5-phenyl-2-furyl)methylene-4-oxothiazolidine-2-thione], for which the IC50 in the test on NiV-pVSV was 1.22 µM; in the test on NiV-pVSV (setting [2]), 1.5 µM.
As to `CCN1C(=O)/C(=C/c2ccc(-c3cccc(OC)c3)o2)SC1=S` [LJ-011, (Z)-3-Ethyl-5-[5-(3-methoxyphenyl)-2-furyl]methylene-4-oxothiazolidine-2-thione], the IC50 worked out at 1.16 µM with NiV-pVSV and 1.5 µM with NiV-pVSV (setting [2]).
For `CC(=O)NCCCN1C(=O)/C(=C/c2ccc(-c3ccccc3)o2)SC1=S` [LJ-034, (Z)—N-(3-(4-Oxo-5-((5-phenylfuran-2-yl)methylene)-2-thioxothiazolidin-3-yl)propyl)acetamide], the “IC50 (μM)” value in the test on NiV-pVSV was “Inactive”.
`CCN1C(=O)/C(=C/c2ccc(-c3ccccc3[N+]#N)o2)SC1=S.F[B-](F)(F)F` [LJ-020, (Z)-3-Ethyl-5-[5-(2-diazoniophenyl)-2-furyl]methylene-4-oxothiazolidine-2-thione tetrafluoroborate]: the “antiviral activity in SAR discussion” value in the test with NiV-pVSV is reported as “tolerated but led to generally lower activity”.
Take `CCCCCCCCCCCCCCCCCCCCCCO` [n-docosanol]: the IC50 result in the test with enveloped viruses is reported as “millimolar”.
As to `NCCCN1C(=O)/C(=C/c2ccc(-c3ccccc3)o2)SC1=S` [LJ-035, (Z)-3-(3-Aminopropyl)-5-((5-phenylfuran-2-yl)methylene)-4-oxothiazolidin-2-thione], in the test on NiV-pVSV, the “IC50 (μM)” value is given as “Inactive”.
With `CCN1C(=O)/C(=C/c2cnc(-c3ccccc3)o2)SC1=S` [LJ-023, (Z)-3-Ethyl-5-((2-phenyloxazol-5-yl)methylene)-2-thioxothiazolidin-4-one], in the test with NiV-pVSV, the IC50 was 2.4 µM and the “antiviral activity in SAR discussion” value is “retained activity, albeit at slightly reduced levels”. The molecule also returned a half-inhibitory concentration (IC50) in the test with NiV-pVSV (setting [2]) of 2.5 µM.
For the molecule `CCN1C(=O)/C(=C/c2ccc(-c3ccccc3)s2)SC1=S` [LJ-018, (Z)-3-ethyl-5-((5-phenylthiophen-2-yl)methylene)-2-thioxothiazolidin-4-one], in the test with NiV-pVSV, the IC50 turned out to be 2.65 µM and the “antiviral activity in SAR discussion” value was “retained activity, albeit at slightly reduced levels”. In addition, in the test on NiV-pVSV (setting [2]), the concentration for half-maximal inhibition (IC50) is 4.1 µM.
Regarding `O=C1NC2CSC(CCCCC(=O)OCCCN3C(=O)/C(=C/c4ccc(-c5ccccc5)o4)SC3=S)C2N1` (stereo not drawn) [LJ-024], the “antiviral activity in SAR discussion” value in the test with NiV-pVSV is listed as “retained good activity”. Also, the IC50 in the test on NiV-pVSV (read-out: IC50) was 1.9 µM and 1.77 µM.
In the case of lysophosphotidylcholine [LPC], the “required molar concentration (total lipid content)” value in test [1] was ≥ 10%.
Take `CCN1C(=O)/C(=C/c2ccc(-c3cccc(F)c3)o2)SC1=S` [LJ-007, (Z)-3-Ethyl-5-[5-(3-fluorophenyl)-2-furyl]methylene-4-oxothiazolidine-2-thione]: the IC50 in the test on NiV-pVSV is 1.45 µM; with NiV-pVSV (setting [2]), 2.5 µM.
The molecule `C=CCN1C(=O)S/C(=C\c2ccc(-c3ccccc3)o2)C1=S` [LJ-029, (Z)-3-allyl-5-(5-phenyl-2-furyl)methylene-2-oxothiazolidine-4-thione] came in with an IC50 in the test on NiV-pVSV (setting [2]) of 4.32 µM.
Take `CCN1C(=O)/C(=C/c2ccc(-c3ccccc3OC)o2)SC1=S` [LJ-010, (Z)-3-Ethyl-5-[5-(2-methoxyphenyl)-2-furyl]methylene-4-oxothiazolidine-2-thione]: the half-inhibitory concentration (IC50) in the test on NiV-pVSV was determined as 0.4 µM; in the test with NiV-pVSV (setting [2]), 0.8 µM.
`C#CCN1C(=O)/C(=C/c2ccc(-c3ccccc3)o2)SC1=S` [LJ-032, (Z)-3-(2-propynyl)-5-(5-phenyl-2-furyl)methylene-4-oxothiazolidine-2-thione] displayed a half-inhibitory concentration (IC50) in the test on NiV-pVSV (setting [2]) of 1.03 µM.
Regarding `C=CCN1C(=O)S/C(=C\c2ccc(-c3ccccc3)o2)C1=O` [LJ-025, (Z)-3-Allyl-5-((5-phenylfuran-2-yl)methylene)thiazolidine-2,4-dione], in the test on NiV-pVSV, the “IC50 (μM)” value was “Inactive”; the “antiviral activity in SAR discussion” value is “completely inactive both in vitro and in vivo”. Besides, the “virion membrane morphology by EM” value with pVSV particles was “not”.
As for `CCN1C(=O)/C(=C/c2ccc(-c3ccccc3O)o2)SC1=S` [LJ-016, (Z)-3-Ethyl-5-((5-(2-hydroxyphenyl)furan-2-yl)methylene)-2-thioxothiazolidin-4-one], in the test on NiV-pVSV, the 50% inhibitory concentration (IC50) amounted to 2.35 µM and the “antiviral activity in SAR discussion” value was “tolerated but led to generally lower activity”. In addition, in the test on NiV-pVSV (setting [2]), the IC50 turned out to be 2.2 µM.
In the case of `CCN1C(=O)S/C(=C\c2ccc(-c3ccccc3[N+](=O)[O-])o2)C1=S` [LJ-030, (Z)-3-ethyl-5-((5-(2-nitrophenyl)furan-2-yl)methylene)-2-oxothiazolidin-4-thione], in the test on NiV-pVSV (setting [2]), the concentration for half-maximal inhibition (IC50) came out at 0.49 µM.
Turning to “(Z)-3-(2,4-Dioxo-5-((5-phenylfuran-2-yl)methylene)thioxothiazolidin-3-yl) propyl-5-(2-oxohexahydro-1H-thieno[3,4-d]imidazol-4-yl)pentanoate [LJ-037]”, the “IC50 (μM)” value in the test on NiV-pVSV is reported as “Inactive”.
Turning to `C=CCN1C(=O)C(Cc2ccc(-c3ccccc3)o2)SC1=S` (stereo not drawn) [LJ-033, 3-Allyl-5-((5-phenylfuran-2-yl)methyl)-4-oxothiazolidin-2-thione], in the test on NiV-pVSV, the “IC50 (μM)” value is given as “Inactive” and the “antiviral activity in SAR discussion” value was “completely inactive”.
Take `CCCN1C(=O)/C(=C/c2ccc(-c3ccccc3)o2)SC1=S` [LJ-003, (Z)-3-Propyl-5-(5-phenyl-2-furyl)methylene-4-oxothiazolidine-2-thione]: the figures for the IC50 in the test with NiV-pVSV and with NiV-pVSV (setting [2]) were 0.95 µM and 0.9 µM, respectively.
With `CCN1C(=O)/C(=C/c2cccc(-c3ccccc3)c2)SC1=S` [LJ-019, (Z)-5-(Biphenyl-3-ylmethylene)-3-ethyl-2-thioxothiazolidin-4-one], in the test on NiV-pVSV, the “IC50 (μM)” value was “Inactive” and the “antiviral activity in SAR discussion” value is “inactive”.
In the case of `CCN1C(=O)/C(=C/c2ccc(-c3ccccc3N)o2)SC1=S` [LJ-017, (Z)-5-((5-(2-Aminophenyl)furan-2-yl)methylene)-3-ethyl-2-thioxothiazolidin-4-one], the IC50 was determined as 1.96 µM in the test on NiV-pVSV and 3.4 µM in the test with NiV-pVSV (setting [2]). The “antiviral activity in SAR discussion” value in the test with NiV-pVSV was “tolerated but led to generally lower activity”.
